Measured values: patent US10588317B2, “Isoxazoline-substituted benzamides and analogues as insecticides” (priority 2015, dated 2020)
Where two headings read alike, the source gives them in different places.

Assays:
Type in all cases: in vivo
Diabrotica balteata = Diabrotica balteata (corn root worm), sprayed maize sprouts; conditions: 96 h, read-out: effect in at least one of the two categories (mortality or growth inhibition); for percent effect (mortality or growth inhibition) at 200 ppm: application rate 200 ppm, L2 larvae, 4 days after infestation
Method in brief: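 Read-out at 4 days post-infestation: mortality and growth inhibition relative to untreated samples. Test solutions (200 ppm, from DMSO stocks) were sprayed onto agar-held maize sprouts, which after drying received 6–10 L2 larvae per well.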

Euschistus heros = Euschistus heros (neotropical brown stink bug), sprayed soybean leaves; conditions: 120 h, read-out: effect in at least one of the two categories (mortality or growth inhibition); for percent effect (mortality or growth inhibition) at 200 ppm: application rate 200 ppm, N2 nymphs, 5 days after infestation
Method in brief: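 Scored 5 days post-infestation versus untreated controls, for both mortality and growth inhibition: N2 nymphs placed on agar-mounted soybean leaves previously sprayed at 200 ppm with aqueous test solutions from DMSO stocks and left to dry.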

Myzus persicae = Myzus persicae (green peach aphid): feeding/contact activity; conditions: 144 h
Procedure: (§1) Sunflower leaf discs were placed onto agar in a 24-well microtiter plate and sprayed with aqueous test solutions prepared from 10'000 ppm DMSO stock solutions. After drying, the leaf discs were infested with an aphid population of mixed ages. The samples were assessed for mortality 6 days after infestation.

Plutella xylostella = Plutella xylostella (diamond back moth), artificial diet; conditions: 120 h, read-out: effect in at least one of the two categories (mortality or growth inhibition); for percent effect (mortality or growth inhibition) at 200 ppm: application rate 200 ppm, L2 larvae, 5 days after infestation
Method in brief: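 L2 larvae (10-15 per well) fed on compound-treated, dried artificial diet; test solutions diluted in water from 10'000 ppm DMSO stocks. Readout 5 days post-infestation as mortality or growth inhibition versus untreated diet, with at least 80% effect at 200 ppm as threshold.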

Spodoptera littoralis = Spodoptera littoralis (Egyptian cotton leaf worm), sprayed cotton leaf discs; conditions: foliar, 72 h, read-out: control (mortality, anti-feeding effect, growth inhibition)
Method in brief: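 Five first-instar larvae placed on dried cotton leaf discs (on agar) previously sprayed with aqueous dilutions of 10'000 ppm DMSO stocks. Scored at 3 days against untreated discs for mortality, feeding inhibition and growth inhibition; any category above untreated counts as control.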

Tetranychus urticae = Tetranychus urticae (two-spotted spider mite): feeding/contact activity; conditions: 192 h
Procedure: Bean leaf discs on agar in 24-well microtiter plates were sprayed with aqueous test solutions prepared from 10'000 ppm DMSO stock solutions. After drying the leaf discs were infested with a mite population of mixed ages. The samples were assessed for mortality on mixed population (mobile stages) 8 days after infestation.

Thrips tabaci = Thrips tabaci (onion thrips): feeding/contact activity; conditions: 144 h
Procedure: as §1, with “on” for “onto”, “in” for “in a”, “plates” for “plate”, “drying” for “drying,”, “a Thrips” for “an aphid”

[1] = application rate 200 ppm, aphid population of mixed ages, 6 days after infestation, read-out: mortality
[2] = application rate 200 ppm, L1 larvae, 3 days after infestation
[3] = application rate 200 ppm, mixed population (mobile stages), 8 days after infestation, read-out: mortality
[4] = application rate 200 ppm, Thrips population of mixed ages, 6 days after infestation, read-out: mortality

Cc1cc(C2=NO[C@@](c3cc(Cl)c(C(F)F)c(Cl)c3)(C(F)(F)F)C2)ccc1C(=O)N[C@@H]1CON(S(C)(=O)=O)C1 [Compound A197, 4-[(5S)-5-[3,5-dichloro-4-(difluoromethyl)phenyl]-5-(trifluoromethyl)-4H-1,2-oxazol-3-yl]-2-methyl-N-[(4S)-2-methylsulfonyl-1,2-oxazolidin-4-yl]benzamide]
≥ 80%: percent effect (mortality or growth inhibition) at 200 ppm (Diabrotica balteata) | percent effect (mortality or growth inhibition) at 200 ppm (Euschistus heros) | mortality at 200 ppm (Myzus persicae; [1]) | percent effect (mortality or growth inhibition) at 200 ppm (Plutella xylostella) | mortality at 200 ppm (Spodoptera littoralis; [2]) | mortality at 200 ppm (Tetranychus urticae; [3]) | mortality at 200 ppm (Thrips tabaci; [4])

CCS(=O)(=O)N1CC(NC(=O)c2ccc(C3=NO[C@@](c4cc(Cl)c(F)c(Cl)c4)(C(F)(F)F)C3)cc2C)CO1 (stereo partly drawn) [Compound A4]
≥ 80%: percent effect (mortality or growth inhibition) at 200 ppm (Diabrotica balteata) | percent effect (mortality or growth inhibition) at 200 ppm (Euschistus heros) | mortality at 200 ppm (Myzus persicae; [1]) | percent effect (mortality or growth inhibition) at 200 ppm (Plutella xylostella) | mortality at 200 ppm (Spodoptera littoralis; [2]) | mortality at 200 ppm (Tetranychus urticae; [3]) | mortality at 200 ppm (Thrips tabaci; [4])

CNS(=O)(=O)N1C[C@H](NC(=O)c2ccc(C3=NO[C@@](c4ccc(F)c(C(F)(F)F)c4)(C(F)(F)F)C3)cc2C)CO1 [Compound A181]
≥ 80%: percent effect (mortality or growth inhibition) at 200 ppm (Diabrotica balteata) | percent effect (mortality or growth inhibition) at 200 ppm (Euschistus heros) | mortality at 200 ppm (Myzus persicae; [1]) | percent effect (mortality or growth inhibition) at 200 ppm (Plutella xylostella) | mortality at 200 ppm (Spodoptera littoralis; [2]) | mortality at 200 ppm (Tetranychus urticae; [3]) | mortality at 200 ppm (Thrips tabaci; [4])

Cc1cc(C2=NO[C@@](c3cc(Cl)cc(Cl)c3)(C(F)(F)F)C2)ccc1C(=O)N[C@H]1CON(S(=O)(=O)F)C1 [Compound A198, (4R)-4-[[4-[(5S)-5-(3,5-dichlorophenyl)-5-(trifluoromethyl)-4H-isoxazol-3-yl]-2-methyl-benzoyl]amino]isoxazolidine-2-sulfonyl fluoride]
≥ 80%: percent control (mortality or growth inhibition) at 200 ppm (Diabrotica balteata) | percent control (mortality or growth inhibition) at 200 ppm (Euschistus heros) | mortality at 200 ppm (Myzus persicae) | percent control (mortality or growth inhibition) at 200 ppm (Plutella xylostella) | mortality at 200 ppm (Spodoptera littoralis) | mortality at 200 ppm (Tetranychus urticae) | mortality at 200 ppm (Thrips tabaci)

Cc1cc(C2=NO[C@@](c3cc(Cl)c(F)c(Cl)c3)(C(F)(F)F)C2)ccc1C(=O)N[C@@H]1CON(S(=O)(=O)N2CCOCC2)C1 [Compound A188, 4-[(5S)-5-(3,5-dichloro-4-fluorophenyl)-5-(trifluoromethyl)-4H-1,2-oxazol-3-yl]-2-methyl-N-[(4S)-2-morpholin-4-ylsulfonyl-1,2-oxazolidin-4-yl]benzamide]
≥ 80%: percent effect (mortality or growth inhibition) at 200 ppm (Diabrotica balteata) | percent effect (mortality or growth inhibition) at 200 ppm (Euschistus heros) | mortality at 200 ppm (Myzus persicae; [1]) | percent effect (mortality or growth inhibition) at 200 ppm (Plutella xylostella) | mortality at 200 ppm (Spodoptera littoralis; [2]) | mortality at 200 ppm (Tetranychus urticae; [3]) | mortality at 200 ppm (Thrips tabaci; [4])

Cc1cc(C2=NO[C@@](c3cc(F)cc(C(F)(F)F)c3)(C(F)(F)F)C2)ccc1C(=O)N[C@@H]1CON(S(=O)(=O)N(C)C)C1 [Compound A169]
≥ 80%: percent effect (mortality or growth inhibition) at 200 ppm (Diabrotica balteata) | percent effect (mortality or growth inhibition) at 200 ppm (Euschistus heros) | mortality at 200 ppm (Myzus persicae; [1]) | percent effect (mortality or growth inhibition) at 200 ppm (Plutella xylostella) | mortality at 200 ppm (Spodoptera littoralis; [2]) | mortality at 200 ppm (Tetranychus urticae; [3]) | mortality at 200 ppm (Thrips tabaci; [4])

Cc1cc(C2=NO[C@@](c3cc(Cl)c(OC(F)F)c(Cl)c3)(C(F)(F)F)C2)ccc1C(=O)N[C@@H]1CON(S(=O)(=O)N(C)C)C1 [Compound A205, 4-[(5S)-5-[3,5-dichloro-4-(difluoromethoxy)phenyl]-5-(trifluoromethyl)-4H-1,2-oxazol-3-yl]-N-[(4S)-2-(dimethylsulfamoyl)-1,2-oxazolidin-4-yl]-2-methylbenzamide]
≥ 80%: percent effect (mortality or growth inhibition) at 200 ppm (Diabrotica balteata) | percent effect (mortality or growth inhibition) at 200 ppm (Euschistus heros) | mortality at 200 ppm (Myzus persicae; [1]) | percent effect (mortality or growth inhibition) at 200 ppm (Plutella xylostella) | mortality at 200 ppm (Spodoptera littoralis; [2]) | mortality at 200 ppm (Tetranychus urticae; [3]) | mortality at 200 ppm (Thrips tabaci; [4])

CS(=O)(=O)N1CC(NC(=O)c2ccc(C3=NO[C@@](c4cc(Cl)c(Cl)c(Cl)c4)(C(F)(F)F)C3)cc2Cl)CO1 (stereo partly drawn) [Compound A15, 2-chloro-N-(2-methylsulfonylisoxazolidin-4-yl)-4-[(5S)-5-(3,4,5-trichlorophenyl)-5-(trifluoromethyl)-4H-isoxazol-3-yl]benzamide]
≥ 80%: percent effect (mortality or growth inhibition) at 200 ppm (Diabrotica balteata) | percent effect (mortality or growth inhibition) at 200 ppm (Euschistus heros) | mortality at 200 ppm (Myzus persicae; [1]) | percent effect (mortality or growth inhibition) at 200 ppm (Plutella xylostella) | mortality at 200 ppm (Spodoptera littoralis; [2]) | mortality at 200 ppm (Tetranychus urticae; [3]) | mortality at 200 ppm (Thrips tabaci; [4])

Cc1cc(C2=NO[C@@](c3cc(Cl)c(Cl)c(Cl)c3)(C(F)(F)F)C2)ccc1C(=O)NC1CON(S(=O)(=O)F)C1 (stereo partly drawn) [Compound A106, 4-[[2-methyl-4-[(5S)-5-(3,4,5-trichlorophenyl)-5-(trifluoromethyl)-4H-isoxazol-3-yl]benzoyl]amino]isoxazolidine-2-sulfonyl fluoride]
≥ 80%: percent control (mortality or growth inhibition) at 200 ppm (Diabrotica balteata) | percent control (mortality or growth inhibition) at 200 ppm (Euschistus heros) | mortality at 200 ppm (Myzus persicae) | percent control (mortality or growth inhibition) at 200 ppm (Plutella xylostella) | mortality at 200 ppm (Spodoptera littoralis) | mortality at 200 ppm (Tetranychus urticae) | mortality at 200 ppm (Thrips tabaci)

COC(=O)N(C)S(=O)(=O)N1CC(NC(=O)c2ccc(C3=NO[C@@](c4cc(Cl)c(F)c(Cl)c4)(C(F)(F)F)C3)cc2C)CO1 (stereo partly drawn) [Compound A77, methyl N-[4-[[4-[(5S)-5-(3,5-dichloro-4-fluoro-phenyl)-5-(trifluoromethyl)-4H-isoxazol-3-yl]-2-methyl-benzoyl]amino]isoxazolidin-2-yl]sulfonyl-N-methyl-carbamate]
≥ 80%: percent effect (mortality or growth inhibition) at 200 ppm (Diabrotica balteata) | percent effect (mortality or growth inhibition) at 200 ppm (Euschistus heros) | mortality at 200 ppm (Myzus persicae; [1]) | percent effect (mortality or growth inhibition) at 200 ppm (Plutella xylostella) | mortality at 200 ppm (Spodoptera littoralis; [2]) | mortality at 200 ppm (Tetranychus urticae; [3]) | mortality at 200 ppm (Thrips tabaci; [4])

Cc1cc(C2=NO[C@@](c3cc(Cl)c(F)c(Cl)c3)(C(F)(F)F)C2)ccc1C(=O)N[C@@H]1CON(S(=O)(=O)C2CC2)C1 [Compound A228, N-[(4S)-2-cyclopropylsulfonyl-1,2-oxazolidin-4-yl]-4-[(5S)-5-(3,5-dichloro-4-fluorophenyl)-5-(trifluoromethyl)-4H-1,2-oxazol-3-yl]-2-methylbenzamide]
≥ 80%: percent effect (mortality or growth inhibition) at 200 ppm (Diabrotica balteata) | percent effect (mortality or growth inhibition) at 200 ppm (Euschistus heros) | mortality at 200 ppm (Myzus persicae; [1]) | percent effect (mortality or growth inhibition) at 200 ppm (Plutella xylostella) | mortality at 200 ppm (Spodoptera littoralis; [2]) | mortality at 200 ppm (Tetranychus urticae; [3]) | mortality at 200 ppm (Thrips tabaci; [4])

Cc1cc(C2=NO[C@@](c3cc(Cl)cc(Cl)c3)(C(F)(F)F)C2)ccc1C(=O)N[C@@H]1CON(S(=O)(=O)C2CC2)C1 [Compound A230]
≥ 80%: percent effect (mortality or growth inhibition) at 200 ppm (Diabrotica balteata) | percent effect (mortality or growth inhibition) at 200 ppm (Euschistus heros) | mortality at 200 ppm (Myzus persicae; [1]) | percent effect (mortality or growth inhibition) at 200 ppm (Plutella xylostella) | mortality at 200 ppm (Spodoptera littoralis; [2]) | mortality at 200 ppm (Tetranychus urticae; [3]) | mortality at 200 ppm (Thrips tabaci; [4])

Cc1cc(C2=NO[C@](c3cc(Cl)cc(C(F)(F)F)c3)(C(F)(F)F)C2)ccc1C(=O)N[C@H]1CON(S(=O)(=O)CF)C1 [Compound A218]
≥ 80%: percent effect (mortality or growth inhibition) at 200 ppm (Diabrotica balteata) | percent effect (mortality or growth inhibition) at 200 ppm (Euschistus heros) | mortality at 200 ppm (Myzus persicae; [1]) | percent effect (mortality or growth inhibition) at 200 ppm (Plutella xylostella) | mortality at 200 ppm (Spodoptera littoralis; [2]) | mortality at 200 ppm (Tetranychus urticae; [3]) | mortality at 200 ppm (Thrips tabaci; [4])

Cc1cc(C2=NO[C@](c3cc(Cl)cc(C(F)F)c3)(C(F)(F)F)C2)ccc1C(=O)N[C@H]1CON(S(C)(=O)=O)C1 [Compound A185]
≥ 80%: percent effect (mortality or growth inhibition) at 200 ppm (Diabrotica balteata) | percent effect (mortality or growth inhibition) at 200 ppm (Euschistus heros) | mortality at 200 ppm (Myzus persicae; [1]) | percent effect (mortality or growth inhibition) at 200 ppm (Plutella xylostella) | mortality at 200 ppm (Spodoptera littoralis; [2]) | mortality at 200 ppm (Tetranychus urticae; [3]) | mortality at 200 ppm (Thrips tabaci; [4])

CNS(=O)(=O)N1C[C@@H](NC(=O)c2ccc(C3=NO[C@](c4cc(F)cc(C(F)(F)F)c4)(C(F)(F)F)C3)cc2C)CO1 [Compound A180]
≥ 80%: percent effect (mortality or growth inhibition) at 200 ppm (Diabrotica balteata) | percent effect (mortality or growth inhibition) at 200 ppm (Euschistus heros) | mortality at 200 ppm (Myzus persicae; [1]) | percent effect (mortality or growth inhibition) at 200 ppm (Plutella xylostella) | mortality at 200 ppm (Spodoptera littoralis; [2]) | mortality at 200 ppm (Tetranychus urticae; [3]) | mortality at 200 ppm (Thrips tabaci; [4])
